Where “and” joins values, the source holds several entries; their conditions need not be identical. Equal values may be shown once. Inconclusive results and toxic doses are left out.
Test system: BDF1 mice, P388 leukemia ip, median survival T/C
Assay: NCI In Vivo Anticancer Drug Screen. Data for tumor model P388 Leukemia (intraperitoneal) in B6D2F1 (BDF1) mice
Details: endpoint: median survival time, higher = longer survival
Summary of the method: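 Compound-treated tumour-bearing mice were compared with vehicle-treated controls. Survival was recorded, and the value is the treated-group measurement divided by the control-group measurement (T/C).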

[1] = dose: 12.5 mg/kg/injection, schedule: Q01DX009 (ip), vehicle: saline with Tween-80
[2] = dose: 25.0 mg/kg/injection, schedule: Q04DX003 (ip), vehicle: saline with Tween-80
[3] = dose: 50.0 mg/kg/injection, schedule: Q04DX003 (ip), vehicle: saline with Tween-80
[4] = dose: 100.0 mg/kg/injection, schedule: Q04DX003 (ip), vehicle: saline
[5] = dose: 200.0 mg/kg/injection, schedule: Q04DX003 (ip), vehicle: saline
[6] = dose: 50.0 mg/kg/injection, schedule: Q01DX009 (ip), vehicle: saline with Tween-80
[7] = dose: 100.0 mg/kg/injection, schedule: Q01DX009 (ip), vehicle: saline with Tween-80
[8] = dose: 200.0 mg/kg/injection, schedule: Q01DX009 (ip), vehicle: saline with Tween-80
[9] = dose: 50.0 mg/kg/injection, schedule: Q01DX009 (ip), vehicle: Klucel (hydroxypropylcellulose) (HPC)
[10] = dose: 50.0 mg/kg/injection, schedule: Q04DX003 (ip), vehicle: Klucel (hydroxypropylcellulose) (HPC)
[11] = dose: 100.0 mg/kg/injection, schedule: Q04DX003 (ip), vehicle: Klucel (hydroxypropylcellulose) (HPC)
[12] = dose: 200.0 mg/kg/injection, schedule: Q04DX003 (ip), vehicle: Klucel (hydroxypropylcellulose) (HPC)
[13] = dose: 25.0 mg/kg/injection, schedule: Q04DX003 (ip), vehicle: saline

O=C1C(Br)=C(Br)C(=O)C1(Br)Br
T/C (dose: 8.25 mg/kg/injection, schedule: Q01DX009 (ip), vehicle: saline with Tween-80): 100 % of control | T/C [1]: 109 % of control | T/C (dose: 18.75 mg/kg/injection, schedule: Q01DX009 (ip), vehicle: saline with Tween-80): 113 % of control

CCCCCCCCCC(=O)NC(CN1CCOCC1)C(=O)c1ccccc1 (stereo not drawn)
T/C (dose: 12.5 mg/kg/injection, schedule: Q04DX003 (ip), vehicle: saline with Tween-80): 95 % of control | T/C [2]: 98 % of control | T/C [3]: 100 % of control

O=C1OC(=O)C2C1C1(Cl)C(Cl)=C(Cl)C2(Cl)C2C(=O)OC(=O)C21 (stereo not drawn)
T/C [4]: 91 % of control | T/C [5]: 108 % of control | T/C (dose: 400.0 mg/kg/injection, schedule: Q04DX003 (ip), vehicle: saline): 104 % of control

CCCCOC(=O)c1ccc(OP(=O)(N(C)C)N(C)C)cc1
T/C [6]: 100 % of control | T/C [7]: 94 % of control | T/C [8]: 87 % of control

Cc1ccc2c(C)c3c(ccc4ccccc43)c[n+]2c1
T/C (dose: 1.25 mg/kg/injection, schedule: Q01DX009 (ip), vehicle: Klucel (hydroxypropylcellulose) (HPC)): 115 % of control | T/C (dose: 1.25 mg/kg/injection, schedule: Q01DX009 (ip), vehicle: saline): 115 % of control | T/C (dose: 2.5 mg/kg/injection, schedule: Q01DX009 (ip), vehicle: Klucel (hydroxypropylcellulose) (HPC)): 120 % of control | T/C (dose: 2.5 mg/kg/injection, schedule: Q01DX009 (ip), vehicle: saline): 100 % of control | T/C (dose: 2.5 mg/kg/injection, schedule: Q04DX003 (ip), vehicle: saline): 100 % of control | T/C (dose: 5.0 mg/kg/injection, schedule: Q04DX003 (ip), vehicle: saline): 104 % of control | T/C (dose: 10.0 mg/kg/injection, schedule: Q01DX009 (ip), vehicle: saline): 90 % of control | T/C (dose: 10.0 mg/kg/injection, schedule: Q04DX003 (ip), vehicle: saline): 116 % of control | T/C (dose: 20.0 mg/kg/injection, schedule: Q04DX003 (ip), vehicle: saline): 120 % of control

CCOC(=O)C1C(=O)C2CCc3c(ccc4ccccc34)N2C1=O (stereo not drawn)
T/C [9]: 100 % of control | T/C [10]: 95 % of control | T/C (dose: 100.0 mg/kg/injection, schedule: Q01DX009 (ip), vehicle: Klucel (hydroxypropylcellulose) (HPC)): 110 % of control | T/C [11]: 95 % of control | T/C (dose: 200.0 mg/kg/injection, schedule: Q01DX009 (ip), vehicle: Klucel (hydroxypropylcellulose) (HPC)): 100 % of control | T/C [12]: 100 % of control

C[P+](c1ccc(F)cc1)(c1ccc(F)cc1)c1ccc(F)cc1
T/C (dose: 12.5 mg/kg/injection, schedule: Q01DX009 (ip), vehicle: Klucel (hydroxypropylcellulose) (HPC)): 86 % of control | T/C (dose: 25.0 mg/kg/injection, schedule: Q01DX009 (ip), vehicle: Klucel (hydroxypropylcellulose) (HPC)): 104 % of control | T/C (dose: 25.0 mg/kg/injection, schedule: Q04DX003 (ip), vehicle: Klucel (hydroxypropylcellulose) (HPC)): 104 % of control | T/C [9]: 109 % of control | T/C [10]: 90 % of control

CCCCCCCCCCCCCCCCOCCCCCCCCCCCCCCCC
T/C (dose: 100.0 mg/kg/injection, schedule: Q01DX009 (ip), vehicle: other): 86 % of control | T/C (dose: 100.0 mg/kg/injection, schedule: Q04DX003 (ip), vehicle: other): 91 % of control | T/C (dose: 200.0 mg/kg/injection, schedule: Q01DX009 (ip), vehicle: other): 86 % of control | T/C (dose: 200.0 mg/kg/injection, schedule: Q04DX003 (ip), vehicle: other): 91 % of control

CN(C)c1ccc(C=Nc2ccc3c(c2)/C(=C/c2ccc(N(C)C)cc2)c2ccccc2-3)cc1
T/C [2]: 116 % of control | T/C [3]: 122 % of control | T/C (dose: 100.0 mg/kg/injection, schedule: Q04DX003 (ip), vehicle: saline with Tween-80): 116 % of control | T/C (dose: 200.0 mg/kg/injection, schedule: Q04DX003 (ip), vehicle: saline with Tween-80): 121 % of control

COC(=O)C1=C(C(=O)OC)C(C(=O)OC)N2C=C(C)C=CC2=C1C(=O)OC (stereo not drawn)
T/C [6]: 102 % of control | T/C [7]: 100 % of control | T/C [8]: 98 % of control

CNc1nc2c(N)ncnc2n1C1OC(CO)C(O)C1O (stereo not drawn)
T/C (dose: 6.25 mg/kg/injection, schedule: Q01DX009 (ip), vehicle: saline with Tween-80): 105 % of control | T/C [1]: 123 % of control

CC1=C/C(=N\N=C2/C=C(C)CC(C)(C)C2)CC(C)(C)C1
T/C [11]: 104 % of control | T/C [12]: 109 % of control | T/C (dose: 400.0 mg/kg/injection, schedule: Q04DX003 (ip), vehicle: Klucel (hydroxypropylcellulose) (HPC)): 100 % of control

COc1cc(NS(C)(=O)=O)ccc1Nc1c2ccc([N+](=O)[O-])cc2nc2c(C)c(C)ccc12
T/C (dose: 0.29 mg/kg/injection, schedule: Q04DX003 (ip), vehicle: saline with Tween-80): 112 % of control | T/C (dose: 0.44 mg/kg/injection, schedule: Q04DX003 (ip), vehicle: saline with Tween-80): 154 % of control | T/C (dose: 0.88 mg/kg/injection, schedule: Q01DX009 (ip), vehicle: saline with Tween-80): 185 % of control | T/C (dose: 1.0 mg/kg/injection, schedule: Q04DX003 (ip), vehicle: saline with Tween-80): 154 % of control | T/C (dose: 1.33 mg/kg/injection, schedule: Q01DX009 (ip), vehicle: saline with Tween-80): 203 % of control | T/C (dose: 2.0 mg/kg/injection, schedule: Q01DX009 (ip), vehicle: saline with Tween-80): 254 % of control | T/C (dose: 2.66 mg/kg/injection, schedule: Q01DX009 (ip), vehicle: saline with Tween-80): 269 % of control | T/C (dose: 3.0 mg/kg/injection, schedule: Q01DX009 (ip), vehicle: saline with Tween-80): 273 % of control | T/C (dose: 4.0 mg/kg/injection, schedule: Q01DX009 (ip), vehicle: saline with Tween-80): 272 % of control | T/C (dose: 6.0 mg/kg/injection, schedule: Q01DX009 (ip), vehicle: saline with Tween-80): 211 % of control | T/C (dose: 9.0 mg/kg/injection, schedule: Q01DX009 (ip), vehicle: saline with Tween-80): 295 % of control | T/C (dose: 22.0 mg/kg/injection, schedule: Q04DX003 (ip), vehicle: saline with Tween-80): 236 % of control and 281 % of control | T/C [13]: 260 % of control | T/C (dose: 33.0 mg/kg/injection, schedule: Q04DX003 (ip), vehicle: saline with Tween-80): 272 % of control and 281 % of control | T/C [3]: 272 % of control and 281 % of control | T/C (dose: 50.0 mg/kg/injection, schedule: Q04DX003 (ip), vehicle: saline): 230 % of control | T/C (dose: 75.0 mg/kg/injection, schedule: Q04DX003 (ip), vehicle: saline with Tween-80): 272 % of control and 122 % of control | T/C [4]: 95 % of control

CC1=CC(=Nc2ccc(N(C)C)cc2)C=CC1=O
T/C (dose: 3.13 mg/kg/injection, schedule: Q01DX009 (ip), vehicle: suspension in saline): 98 % of control | T/C (dose: 6.25 mg/kg/injection, schedule: Q01DX009 (ip), vehicle: suspension in saline): 117 % of control | T/C (dose: 12.5 mg/kg/injection, schedule: Q01DX009 (ip), vehicle: suspension in saline): 123 % of control | T/C (dose: 25.0 mg/kg/injection, schedule: Q01DX009 (ip), vehicle: suspension in saline): 117 % of control

Nc1ncnc2c1ncn2C1CCCO1 (stereo not drawn)
T/C [6]: 100 % of control | T/C [7]: 109 % of control | T/C [4]: 100 % of control | T/C [8]: 109 % of control | T/C [5]: 95 % of control

Cc1ccc(S(=O)(=O)OC2CCN(C)CC2)cc1
T/C (dose: 3.0 mg/kg/injection, schedule: Q04DX003 (ip), vehicle: saline): 100 % of control | T/C (dose: 6.0 mg/kg/injection, schedule: Q04DX003 (ip), vehicle: saline): 95 % of control | T/C (dose: 12.0 mg/kg/injection, schedule: Q04DX003 (ip), vehicle: saline): 100 % of control | T/C [13]: 100 % of control

O=C(COc1ccc(Cl)cc1)C1CSc2ccc(Br)cc21 (stereo not drawn)
T/C (dose: 100.0 mg/kg/injection, schedule: Q04DX003 (ip), vehicle: saline sonified): 90 % of control | T/C (dose: 200.0 mg/kg/injection, schedule: Q04DX003 (ip), vehicle: saline sonified): 95 % of control | T/C (dose: 400.0 mg/kg/injection, schedule: Q04DX003 (ip), vehicle: saline sonified): 95 % of control

CCN1CC2(CO)CCC(OC)C34C5CC6C(OC)CC(O)(C5C6OC)C(O)(C(OC)C23)C14 (stereo not drawn)
T/C [6]: 100 % of control | T/C [7]: 103 % of control | T/C [8]: 100 % of control

Cc1cc(Br)c2ccccc2c1N(CC(=O)O)S(=O)(=O)c1ccccc1
T/C (dose: 100.0 mg/kg/injection, schedule: Q01DX001 (ip), vehicle: saline with Tween-80): 100 % of control | T/C (dose: 200.0 mg/kg/injection, schedule: Q01DX001 (ip), vehicle: saline with Tween-80): 109 % of control | T/C (dose: 400.0 mg/kg/injection, schedule: Q01DX001 (ip), vehicle: saline with Tween-80): 109 % of control
